Reference: article PMC4752462 (PLoS ONE, 2016)

Columns and labels:
CYP3A4 = conditions: cited from earlier work
human recombinant CYP3A4 = target: T1, human recombinant CYP3A4 (Homo sapiens, UniProt P08684); experiment: CYP3A4 inhibition, Vivid CYP450 blue screening kit with baculosomes; assay type: biochemical
T1 construct: purchased Life Technologies P2858; host or cells: baculosomes (baculovirus-infected insect cell microsomes)
Protocol: CYP3A4 inhibition assay was carried out by using Vivid® CYP450 Screening Kit from Life Technologies as recommended by the manufacturer (# P2858, Carlsbad, CA). This assay allows rapid measurement of interactions between drugs of interest and CYP enzymes based on their capability to inhibit the production of a fluorescent signal in reactions using CYP BACULOSOMES® Plus Reagents and specific Vivid® Substrates. Briefly, the assay was conducted in a 96-well assay plate. […] The final concentrations of 2.5, 5, 7.5, 10, 25, 50, 75, and 100 μM were achieved by diluting the stocks in 1X Vivid® CYP reaction buffer. […] For ethanol only experiment, 2.5, 5, […], 20, 30, and 50 mM final concentrations were used. The final concentration of acetonitrile in each reaction was 0.01% in 100 μl final reaction volume. The fluorescence was immediately measured using a microplate reader (Cytation™ 5 Cell Imaging Multi-Mode Reader, BioTek, VT) at the 415/460 nm excitation and emission wavelengths.
The concentrations of all the drugs were quantified using Ab Sciex Analyst® software. Microsomal kinetic data were analyzed using Michaelis-Menten and exponential decay equations. CYP3A4 inhibition data were evaluated by fitting the values to dose-response inhibition and calculated IC50 values were reported. All graphs were plotted and two-tailed t-tests were performed wherever appropriate using GraphPad Prism 5.01 (GraphPad, San Diego, CA). Significant differences between more than two groups analyzed with one-way ANOVA followed by Dunnett’s multiple comparison tests using IBM SPSS […] version 20. A p value <0.05 was considered significant compared to respective controls. The original data and/or statistical analyses for Michaelis-Menten Kinetics, drug metabolism and half-life determination, inhibition studies, and ligand docking are provided in the supporting information (S1 file).

T1 sequence (P08684 whole entry): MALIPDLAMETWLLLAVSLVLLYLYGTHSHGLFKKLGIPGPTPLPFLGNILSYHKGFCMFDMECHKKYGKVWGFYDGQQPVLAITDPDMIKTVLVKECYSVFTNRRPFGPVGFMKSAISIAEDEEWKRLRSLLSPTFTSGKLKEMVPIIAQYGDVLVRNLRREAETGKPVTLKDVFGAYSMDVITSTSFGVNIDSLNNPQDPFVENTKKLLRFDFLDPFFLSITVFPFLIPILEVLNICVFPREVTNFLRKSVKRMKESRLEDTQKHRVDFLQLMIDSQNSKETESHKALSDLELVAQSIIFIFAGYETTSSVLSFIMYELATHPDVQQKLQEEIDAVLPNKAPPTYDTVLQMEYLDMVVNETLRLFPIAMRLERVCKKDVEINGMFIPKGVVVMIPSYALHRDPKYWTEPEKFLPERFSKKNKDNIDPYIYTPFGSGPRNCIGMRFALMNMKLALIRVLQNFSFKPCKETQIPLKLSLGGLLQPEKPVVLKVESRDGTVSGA

Structure (SMILES): Cc1c(O)cccc1C(=O)N[C@@H](CSc1ccccc1)[C@H](O)CN1C[C@H]2CCCC[C@H]2C[C@H]1C(=O)NC(C)(C)C [nelfinavir]
- effect of ethanol exposure on the IC50 value (CYP3A4): significantly decreased

Structure (SMILES): CCO [EtOH, ethanol]
- CYP3A4 activity (Fig 5 inset) (human recombinant CYP3A4; EtOH 2.5 mM alone): 102.61
- CYP3A4 activity (Fig 5 inset) (human recombinant CYP3A4; EtOH 5 mM alone): 98.7735
- CYP3A4 activity (Fig 5 inset) (human recombinant CYP3A4; EtOH 10 mM alone): 93.5305
- CYP3A4 activity (Fig 5 inset) (human recombinant CYP3A4; EtOH 20 mM alone): 91.7899
- CYP3A4 activity (Fig 5 inset) (human recombinant CYP3A4; EtOH 30 mM alone): 86.4404
- CYP3A4 activity (Fig 5 inset) (human recombinant CYP3A4; EtOH 50 mM alone): 79.5554
- inhibition of CYP3A4 (human recombinant CYP3A4; ethanol only at 20 mM): ~ 10%

Structure (SMILES): CC(C)CN(C[C@@H](O)[C@H](Cc1ccccc1)NC(=O)O[C@H]1CCOC1)S(=O)(=O)c1ccc(N)cc1 [amprenavir]
- effect of ethanol exposure on the IC50 value (CYP3A4): significantly decreased
